*1 amine or outer side, *2 acyl side, *3 side chain or, on linkers, in order; H or OH if unused. Where a SMILES comes first, the peptide text is derived from it. Side-chain parts run from the residue outwards. [ ]: non-standard residue; d: D form. The star is where a group is joined. PEG28 = NCCOCCOCCOCCOCCOCCOCCOCCOCCOCCOCCOCCOCCOCCOCCOCCOCCOCCOCCOCCOCCOCCOCCOCCOCCOCCOCCOCCOCCC(=O)O; X2 = CC(C)CCC[C@@H](C)[C@H]1CC[C@H]2[C@@H]3CC=C4C[C@@H](OC(=O)C*)CC[C@]4(C)[C@H]3CC[C@]12C; N(octadecyl)2 = CCCCCCCCCCCCCCCCCCN(CCCCCCCCCCCCCCCCCC)*; NHOctadecyl = CCCCCCCCCCCCCCCCCCN*; PEG4 = NCCOCCOCCOCCOCCC(=O)O; Suc = O=C(CCC(=O)[*:2])[*:1]
Columns and labels:
[1] = set-up: method as in 2 sources, ref 31, 32 = [31]; doi:10.1007/BF02682570; Schick M. J. ( 1966 ) Micelle formation in mixtures of nonionic and cationic detergents . J. Am. Oil Chem. Soc. 43 , 681 – 682 . 10.1007/BF02682570 . || [32]; doi:10.1016/0021-9797(70)90007-X; Barry B. W.; Morrison J. C.; Russell G. F. ( 1970 ) Prediction of the critical micelle concentration of mixtures of alkyltrimethylammonium salts . J. Colloid Interface Sci. 33 , 554 – 561 . 10.1016/ ||| ref 33, 34 = [33]; PMID 17658541; doi:10.1016/j.jcis.2007.06.010; Rodríguez J. L.; Sierra M. B.; Messina P. V.; Morini M. A.; Schulz P. C.; del Burgo P.; Junquera E.; Rodríguez A.; Aicart E. ( 2007 ) Surface and bulk properties of aqueous decyltrimethylammon || [34]; PMID 25356774; doi:10.1039/C4SM01575D; Pucci C.; Pérez L.; La Mesa C.; Pons R. ( 2014 ) Characterization and stability of catanionic vesicles formed by pseudo-tetraalkyl surfactant mixtures . Soft Matter 10 , 9657 – 9667 . 10.1039/C4SM0; conditions: cited from earlier work
[2] = MTT cytotoxicity assay; type: cell-based; conditions: human, HeLa-env cells, PAs coassembled with 5% FAM, 40-2.3 μM, absorbance 560 nm
Description: The metabolic activity of the cell line, related to the cytotoxic effect of the compounds to be tested, is measured after 24 h using the MTT assay. This assay is based on the metabolic reduction of 3-(4,5-dimethylthiazol-2-yl)-2,5-diphenyl-2H-tetrazolium bromide (MTT), carried out by the mitochondrial enzyme succinate dehydrogenase, in a colored compound of blue color (formazan) that can be monitored by absorbance spectroscopy at 560 nm, allowing determination of the mitochondrial functionality of the treated cells.
The HeLa-env cell line is seeded in 96-well plates with an initial density of 15,000 cells per well in 100 μL of culture medium (Dulbecco’s modified Eagle’s medium, DMEM, with 10% FBS added) and incubated for 24 h at 37 °C and 5% CO2 to allow their adhesion. The cell monolayers are washed with PBS, and then 100 μL of PAs formulations (peptide amphiphiles coassembled with 5% FAM) are added in a concentration range from 40 μM to 2.3 μM. The plates are kept in incubation for further 24 h.
At the end of the incubation time, the cells are incubated for 3 h with 1 mg/mL of MTT, dissolved in culture medium without FBS, to allow the formation of formazan crystals. Subsequently, 100 μL of DMSO are added to wells, stirring the plates for 30 min at room temperature to facilitate the complete dissolution of the crystals. Finally, the absorbance at 560 nm is measured in a microplate reader.
The results are expressed as relative percentage between absorbance of PA formulations against absorbance of its DMSO controls and CC50 and CC25 values are taken from dose–response curves.

[3] = tested on: HIV-1BaL; type: cell-based; conditions: HIV-1BaL, TZM-bl cells; peptide 10-0.00061 μM for 1 h at 37 °C before virus; luciferase after 48 h; sigmoid fit; mean of triplicates
Description: HIV-1BaL[52] was provided by the NIH AIDS Research & Reference Reagent Program (http://www.aidsreagent.org/). Viral stock was prepared by passage through activated PBMCs[53] for 11 days.
Luciferase-reporter HeLa cells stably transfected to express CD4 and CCR5; TZM-bl cells[54]−[56] were grown in Dulbecco’s Minimal Essential Medium (DMEM) (Sigma-Aldrich, Inc., St. Louis, MO) containing 10% fetal calf serum (FCS), 2 mM L-glutamine, and antibiotics (100 U of penicillin/mL, 100 μg of streptomycin/mL) at 37 °C in an atmosphere containing 5% CO2.
All inhibition assays in cellular and tissue explants models were performed using a standardized amount of virus culture supernatant normalized for infectivity. TZM-bl cells were incubated with serial dilutions of peptides (from 10 μM to 0.00061 μM) for 1 h at 37 °C, prior to challenge with HIV-1BaL. Luciferase expression (r.l.u. values) was determined after 48 h. Alternatively, tissue explants were incubated with serial dilutions of peptide (from 100 μM to 0.1 μM) for 1 h before virus (10^4 TCID50/mL) was added for 2 h. Explants were then washed four times with PBS to remove unbound virus and drug. Colorectal explants were then transferred onto gelfoam rafts (Welbeck Pharmaceuticals, UK) and cultured for 15 days as described previously[57] […]. Explants were cultured for up to 15 days in the absence of peptide. Approximately 50% of the supernatants were harvested every 2–3 days and explants were re-fed with fresh media. The extent of viral replication in tissue explants was determined by measuring the p24 antigen concentration in supernatants (INNOTEST HIV antigen mAb; Fujirebio Europe, Belgium). The extent of inhibition by each peptide was calculated. The percentage of inhibition was normalized relative to the r.l.u, for TZM-bl cells, or p24, for tissue explants, values obtained for cells or explants cultured in the absence of virus (100% inhibition) and for cells or explants infected with virus in the absence of peptide (0% inhibition). Data are the mean (±SEM) of triplicates. When a dose–response curve was obtained, IC50 and, if possible, IC95 values were calculated from sigmoid curve fits (GraphPad Prism). For all curves, R^2 is >0.7.

[4] = Visual stability and aspect of POPC vesicles mixed with PAs (SAXS samples); type: physicochemical; conditions: POPC 20 mM + 2 mM PA, 0.5% DMSO
Description: In Figure 5A,B, we show the spectra corresponding to POPC 20 mM and POPC 20 mM + 2 mM PAs (all of them in the presence of 0.5% DMSO). The band centered at 1.2 nm^–1 and the secondary band at 3.2 nm^–1 were typical of unilamellar vesicles.[35]
The incorporation of PAs had some distinct consequences. The first and more obvious one is the distinction between stable and unstable systems.

CCCCCCCCCCCC[N+](C)(C)C.[Br-] [dodecyl trimethyl ammonium bromide]
CMC [1]: 14.5 mM

CCCCCCCCCCCCCCCCCCN(CCCCCCCCCCCCCCCCCC)C(=O)CCC(=O)NCCOCCOCCOCCOCCC(=O)N[C@@H](Cc1c[nH]c2ccccc12)C(=O)N[C@H](C(=O)N[C@@H](CC(C)C)C(=O)N[C@@H](CCC(=O)O)C(=O)N[C@@H](Cc1ccc(O)cc1)C(=O)N[C@@H](CC(C)C)C(=O)N[C@@H](Cc1c[nH]c2ccccc12)C(=O)N[C@@H](CCCCN)C(=O)N[C@H](C(=O)N1CCC[C@H]1C(=O)N[C@@H](Cc1ccccc1)C(=O)N[C@@H](CC(=O)O)C(=O)N[C@@H](Cc1ccccc1)C(=O)N[C@@H](Cc1c[nH]c2ccccc12)C(=O)N[C@@H](CCCNC(=N)N)C(=O)NCC(=O)N[C@H](C(=O)N[C@H](C(N)=O)[C@@H](C)CC)C(C)C)C(C)C)[C@@H](C)CC [PA2PEG3] ({N(octadecyl)2-Suc-PEG4}-WILEYLWKVPFDFWRGVI-NH2)
CC50 at 24 h [2]: > 40000 nM

CCCCCCCCCC[N+](C)(C)CCCCCCCCCC.[Br-] [didecyl dimethyl ammonium bromide]
CMC [1]: 1.4 mM

CC[C@H](C)[C@H](NC(=O)[C@@H](NC(=O)CNC(=O)[C@H](CCCNC(=N)N)NC(=O)[C@H](Cc1c[nH]c2ccccc12)NC(=O)[C@H](Cc1ccccc1)NC(=O)[C@H](CC(=O)O)NC(=O)[C@H](Cc1ccccc1)NC(=O)[C@@H]1CCCN1C(=O)[C@@H](NC(=O)[C@H](CCCCN)NC(=O)[C@H](Cc1c[nH]c2ccccc12)NC(=O)[C@H](CC(C)C)NC(=O)[C@H](Cc1ccc(O)cc1)NC(=O)[C@H](CCC(=O)O)NC(=O)[C@H](CC(C)C)NC(=O)[C@@H](NC(=O)[C@H](Cc1c[nH]c2ccccc12)NC(=O)CCOCCOCCOCCOCCNC(=O)[C@@H](N)CSCC(=O)O[C@H]1CC[C@@]2(C)C(=CC[C@H]3[C@@H]4CC[C@H]([C@H](C)CCCC(C)C)[C@@]4(C)CC[C@@H]32)C1)[C@@H](C)CC)C(C)C)C(C)C)C(N)=O [PA3PEG3] (H-C(X2)[PEG4]WILEYLWKVPFDFWRGVI-NH2)
IC50 [3]: 2010 nM | CC50 at 24 h [2]: > 40000 nM

CC[C@H](C)[C@H](NC(=O)[C@@H](NC(=O)CNC(=O)[C@H](CCCNC(=N)N)NC(=O)[C@H](Cc1c[nH]c2ccccc12)NC(=O)[C@H](Cc1ccccc1)NC(=O)[C@H](CC(=O)O)NC(=O)[C@H](Cc1ccccc1)NC(=O)[C@@H]1CCCN1C(=O)[C@@H](NC(=O)[C@H](CCCCN)NC(=O)[C@H](Cc1c[nH]c2ccccc12)NC(=O)[C@H](CC(C)C)NC(=O)[C@H](Cc1ccc(O)cc1)NC(=O)[C@H](CCC(=O)O)NC(=O)[C@H](CC(C)C)NC(=O)[C@@H](NC(=O)[C@H](Cc1c[nH]c2ccccc12)NC(=O)CCOCCOCCOCCOCCOCCOCCOCCOCCOCCOCCOCCOCCOCCOCCOCCOCCOCCOCCOCCOCCOCCOCCOCCOCCOCCOCCOCCOCCNC(=O)[C@@H](N)CSCC(=O)O[C@H]1CC[C@@]2(C)C(=CC[C@H]3[C@@H]4CC[C@H]([C@H](C)CCCC(C)C)[C@@]4(C)CC[C@@H]32)C1)[C@@H](C)CC)C(C)C)C(C)C)C(N)=O [N-PAchol] (H-C(X2)[PEG28]WILEYLWKVPFDFWRGVI-NH2)
IC50 [3]: 120 nM | stability / aspect of the sample [4]: milky | CC50 at 24 h [2]: > 40000 nM

CCCCCCCCCCCCCCCCCCN(CCCCCCCCCCCCCCCCCC)C(=O)CCC(=O)NCCOCCOCCOCCOCCOCCOCCOCCOCCOCCOCCOCCOCCOCCOCCOCCOCCOCCOCCOCCOCCOCCOCCOCCOCCOCCOCCOCCOCCC(=O)N[C@@H](Cc1c[nH]c2ccccc12)C(=O)N[C@H](C(=O)N[C@@H](CC(C)C)C(=O)N[C@@H](CCC(=O)O)C(=O)N[C@@H](Cc1ccc(O)cc1)C(=O)N[C@@H](CC(C)C)C(=O)N[C@@H](Cc1c[nH]c2ccccc12)C(=O)N[C@@H](CCCCN)C(=O)N[C@H](C(=O)N1CCC[C@H]1C(=O)N[C@@H](Cc1ccccc1)C(=O)N[C@@H](CC(=O)O)C(=O)N[C@@H](Cc1ccccc1)C(=O)N[C@@H](Cc1c[nH]c2ccccc12)C(=O)N[C@@H](CCCNC(=N)N)C(=O)NCC(=O)N[C@H](C(=O)N[C@H](C(N)=O)[C@@H](C)CC)C(C)C)C(C)C)[C@@H](C)CC [N-PAdialkyl] ({N(octadecyl)2-Suc-PEG28}-WILEYLWKVPFDFWRGVI-NH2)
IC50 [3]: 150 nM | stability / aspect of the sample [4]: precipitated rather fast and made compact flocks | CC50 at 24 h [2]: > 40000 nM

CCCCCCCCCCCCCCCCCCNC(=O)CCC(=O)NCCOCCOCCOCCOCCC(=O)N[C@@H](Cc1c[nH]c2ccccc12)C(=O)N[C@H](C(=O)N[C@@H](CC(C)C)C(=O)N[C@@H](CCC(=O)O)C(=O)N[C@@H](Cc1ccc(O)cc1)C(=O)N[C@@H](CC(C)C)C(=O)N[C@@H](Cc1c[nH]c2ccccc12)C(=O)N[C@@H](CCCCN)C(=O)N[C@H](C(=O)N1CCC[C@H]1C(=O)N[C@@H](Cc1ccccc1)C(=O)N[C@@H](CC(=O)O)C(=O)N[C@@H](Cc1ccccc1)C(=O)N[C@@H](Cc1c[nH]c2ccccc12)C(=O)N[C@@H](CCCNC(=N)N)C(=O)NCC(=O)N[C@H](C(=O)N[C@H](C(N)=O)[C@@H](C)CC)C(C)C)C(C)C)[C@@H](C)CC [PA1PEG3] ({NHOctadecyl-Suc-PEG4}-WILEYLWKVPFDFWRGVI-NH2)
IC50 [3]: 230 nM | CC50 at 24 h [2]: > 40000 nM

CCCCCCCCCCCCCCCCCCNC(=O)CCC(=O)NCCOCCOCCOCCOCCOCCOCCOCCOCCOCCOCCOCCOCCOCCOCCOCCOCCOCCOCCOCCOCCOCCOCCOCCOCCOCCOCCOCCOCCC(=O)NCCCC[C@H](NC(=O)[C@H](Cc1c[nH]c2ccccc12)NC(=O)[C@H](CC(C)C)NC(=O)[C@H](Cc1ccc(O)cc1)NC(=O)[C@H](CCC(=O)O)NC(=O)[C@H](CC(C)C)NC(=O)[C@@H](NC(=O)[C@@H](N)Cc1c[nH]c2ccccc12)[C@@H](C)CC)C(=O)N[C@H](C(=O)N1CCC[C@H]1C(=O)N[C@@H](Cc1ccccc1)C(=O)N[C@@H](CC(=O)O)C(=O)N[C@@H](Cc1ccccc1)C(=O)N[C@@H](Cc1c[nH]c2ccccc12)C(=O)N[C@@H](CCCNC(=N)N)C(=O)NCC(=O)N[C@H](C(=O)N[C@H](C(N)=O)[C@@H](C)CC)C(C)C)C(C)C [K-PAmonoalkyl] (H-WILEYLWK([PEG28-Suc-NHOctadecyl])VPFDFWRGVI-NH2)
IC50 [3]: 370 nM | stability / aspect of the sample [4]: milky | CC50 at 24 h [2]: 23000 nM

— PMC8447191, “Peptide Amphiphilic-Based Supramolecular Structures with Anti-HIV-1 Activity” (Bioconjugate Chemistry, 2021)
